Experimental data taken from patent publication US8470340B2, “Peptides presenting an epitope of a domain of factor H binding protein and methods of use” (priority 2008, dated 2013).
Residue numbers refer to the chain shown, from its start. In names and notes the source's numbering stands. Ends that are not written are not given here.

B1: D25A: recombinant v.1 fHbp (gene from MC58) with residue 25 changed to alanine (protein)
chain: CSSGGGGVAADIGAGLADALTAPLAHKDKGLQSLTLDQSVRKNEKLKLAAQGAEKTYGNGDSLNTGKLKNDKVSRFDFIRQIEVDGQLITLESGEFQVYKQSHSALTAFQTEQIQDSEHSGKMVAKRQFRIGDIAGEHTSFDKLPEGGRATYRGTAFGSDDAGGKLTYTIDFAAKQGNGKIEHLKSPELNVDLAAADIKPDGKRHAVISGSVLYNQAEKGSYSLGIFGGKAQEVAGSAEVKTVNGIRHIGLAAKQHHHHHH
B2: H26A: recombinant v.1 fHbp (gene from MC58) with residue 26 changed to alanine (protein)
chain: B1 chain with A25D, H26A
B3: K27A: recombinant v.1 fHbp (gene from MC58) with residue 27 changed to alanine (protein)
chain: B1 chain with A25D, K27A

Tests used:
[1] = test system: JAR4 mAb; assay: […] of phage library clones; type: binding, murine; conditions: JAR4 coated at 1 μg/ml, cleared phage supernatant, absorbance at 450 nm
Protocol: […]—Aliquots in 96 wells ELISA plates 100 μl per well of JAR4 mAb were diluted (1 μg/ml) in 50 mM NaHC03, 0.02% (w/v) NaN3, pH 9.6 and incubated 3 hrs at 37° C. or overnight at 4° C. After washing 8 times with 1×PBS containing 0.05% (v/v) TWEEN 20), 200 μl of blocking buffer (PBS, 0.05% TWEEN 20, 5% non-fat dry milk) was added and incubated for 1 hr at 37° C. The wash was discarded and a mixture of 100 μl cleared phage supernatant and 100 μl blocking buffer was added, to the plate and incubated for 3 hrs at 37° C. or overnight at 4° C. After washing 8 times with 1×PBS containing 0.05% (v/v) TWEEN 20), and anti-M13 peroxidase conjugate antibody (Amersham Biosciences, Buckinghamshire, UK) was added at a dilution of […] in blocking buffer (100 μl/well) and incubated for 1 h at 37° C. After further washing, antibody binding was detected by adding TMB substrate, incubated for 45 min at room temperature and stopped with […] of 1 M H2SO4 and reading absorbance at 450 nm.
(§1) In order to identify peptides useful in eliciting antibodies having the eptitope-binding properties of the JAR 4 mAb, libraries of filamentous bacteriophage containing random peptides (9-mers and 12-mers) fused to protein VIII were screened using the JAR 4 mAb as described above. Phage eluted in the final step were used to infect host bacteria, from which the phagemids were collected and the relevant DNA sequence amplified by PCR and sequenced to identify the peptides that interacted with JAR 4 mAb. The relative binding affinity of the peptide of the isolated phage was determined by both […] and […], as described above.

[2] = test system: JAR4 mAb; assay: […] of phage library clones; type: binding, murine; conditions: phage captured by anti-pIII mAb, JAR4 detection, absorbance at 405 nm
Protocol: —Ninety-six wells plates were coated o.n. at 4° C. with 100 μl per well of a rat anti-pili (coat protein III) monoclonal antibody (concentration 1 mg/ml) in 50 mM NaHC03, 0.02% (w/v) NaN3, pH 9.6, and washed 8 times with TBST (50 mM Tris/Cl, 150 mM NaCl, pH 7.5, 0.05% (v/v) TWEEN 20). One hundred μl per well of cleared phage supernatant was added. After washing as above and incubation with antibody (concentration 1 mg/ml) in blocking buffer (5% (w/v) non-fat dry milk, 0.05% TWEEN 20 in PBS), and washing, the binding of the monoclonal antibody was detected by alkaline-phosphatase conjugated goat anti-mouse IgG antibody (Sigma, dilution 1:5000) using p-nitrophenyl phosphate substrate tablets (Sigma).
as §1

[3] = test system: anti-PorA P1.2 mAb; assay: Direct binding ELISA of mAb to KLH-conjugated peptides; conditions: KLH-conjugated peptide coated at 2 μg/ml
Protocol: (§2) The ability of anti-fHbp mAb JAR 4 to bind to the KLH-conjugated peptides was determined by a direct binding ELISA. ELISA plates were coated with 100 μl per well of a 2 μg/ml (peptide concentration) solution at 4° C. overnight. The following morning, the plates were washed and then blocked with PBS containing 1% BSA. The plates were washed and incubated with serial dilutions of mAb JAR 4 or, as a control, anti-fHbp JAR 5 or anti-PorA P1.2 mAb. After incubation (1 hour at room temperature), the plates were washed and incubated with anti-mouse IgG conjugated either with alkaline phosphatase or IRDye 800CW (1:1000). The alkaline phosphatase was detected at 420 nm wavelength after 30 min incubation with phosphatase substrate (1 mg/ml) and the IRDye was detected at 800 nm wavelength.

[4] = test system: anti-fHbp mAb JAR 4; assay: as above; parameters: species or system murine; conditions: for mAb Reactivity JAR 4: KLH-conjugated peptide coated at 2 μg/ml; for reactivity with JAR 4 by ELISA: KLH-conjugated peptides, in words
Protocol: as §2

[5] = test system: anti-fHbp JAR 5; assay: as above; parameters: species or system murine; conditions: for mAb Reactivity JAR 5: KLH-conjugated peptide coated at 2 μg/ml; for binding to control mAb anti-fHbp JAR 5: KLH-conjugated peptides, in words
Protocol: as §2

[6] = test system: JAR 4; assay: ELISA binding of native fHbp sequence peptides; parameters: species or system murine; conditions: peptides from the native v.1 fHbp sequence
[7] = test system: JAR 4; assay: ELISA binding of mAb to site-specific mutant recombinant v.1 fHbp; parameters: species or system murine; conditions: for decrease in JAR 4-reactivity compared with wild-type recombinant fHbp: v.1 fHbp (gene from MC58) alanine mutants
Protocol: Site-specific mutagenesis was used to test the role of amino acid residues involved in the JAR 4 anti-fHbp mAb epitope. Mutagenesis was performed using the QuikChange II kit (Stratagene) using 10 ng of plasmid template and the manufacturer's protocols. For testing residues putatively involved in mAb epitopes, mutagenesis reactions were performed on pET21-based plasmids encoding a wild-type fHbp gene. Site-specific mutagenesis was used to introduce the H26A and K27A substitution into the pET21 plasmid encoding v.1 fHbp from MC58. Mutant fHbp genes were confirmed by DNA sequencing as described for the wild-type plasmids, above.
Site-directed mutagenesis of residues 25, 26 and 27 was performed, each of which was individually changed to alanine in fHbp from the v.1 group (gene from MC58). These mutants were created using the non-signal containing sequence from strain MC58 (MVAAD . . . GLAAKQ) (SEQ ID NO:73), and are referred to as D25A, H26A and K27A, respectively. The amino acid sequences of the portions of the A domains of these mutants is provided in FIG. 7, Panel A. Results of the binding experiment between mutated fHbp and the various JAR mAbs are shown in FIG. 6.

Molecule	PHAGELISA [1]	SEPHELISA [2]	further results
14 (WVLCGQGCGGTA) [Clone 14]	+ (O.D. from 0.15 to 0.5)	+ (O.D. from 0.15 to 0.5)	–
9 (NDERQMSDWYRA) [Clone 9]	+ (O.D. from 0.15 to 0.5)	+ (O.D. from 0.15 to 0.5)	–
6 (FHDHKTANQ) [Clone 6]	+ (O.D. from 0.15 to 0.5)	++ (O.D. from 0.5 to 1)	–
5 (GCMGYDHRSGCV) [Clone 5]	+ (O.D. from 0.15 to 0.5)	++ (O.D. from 0.5 to 1)	–
15 (RCQVQVMVLCAL) [Clone 15]	+ (O.D. from 0.15 to 0.5)	+ (O.D. from 0.15 to 0.5)	–
17 (SDWGWGGRAEQH) [Clone 17]	+ (O.D. from 0.15 to 0.5)	+ (O.D. from 0.15 to 0.5)	–
11 (LEWCGFSRCEVG) [Clone 11]	+ (O.D. from 0.15 to 0.5)	+ (O.D. from 0.15 to 0.5)	–
18 (VGWCGFERCSSA) [Clone 18]	+ (O.D. from 0.15 to 0.5)	+ (O.D. from 0.15 to 0.5)	–
7 (WRWCGFERCPEG) [Clone 7]	+ (O.D. from 0.15 to 0.5)	++ (O.D. from 0.5 to 1)	–
2 (CGGVYDDKTGCA) [Clone 2]	++ (O.D. from 0.5 to 1)	++++ (O.D. from 2 to 3.5)	–
12 (KDHRHMLWPEES) [Clone 12]	+ (O.D. from 0.15 to 0.5)	+ (O.D. from 0.15 to 0.5)	–
3 (HDHKTQLDP) [Clone 3]	++++ (O.D. from 2 to 3.5)	++++ (O.D. from 2 to 3.5)	–
AEGEFHDHKTQLDPDPAKC (also: conjugated to KLH) [JAR 4 Phage 1, synthetic peptide conjugated to keyhole limpet hemocyanin (KLH)]	–	–	mAb Reactivity P1.2 [3]: − (no detectable binding at 50 μg/ml); mAb Reactivity JAR 4 [4]: ++ (50% of maximal binding at < 1 μg/ml); reactivity with JAR 4 by ELISA [4]: reacted; mAb Reactivity JAR 5 [5]: − (no detectable binding at 50 μg/ml); binding to control mAb anti-fHbp JAR 5 [5]: no detectable binding
ALTAPLDHKDKGLQSDPAKC (also: conjugated to KLH) [JAR 4 Native, reference compound]	–	–	mAb Reactivity JAR 4 [4]: − (no detectable binding at 50 μg/ml); mAb Reactivity JAR 5 [5]: − (no detectable binding at 50 μg/ml)
AQAFQTPVHSDPAKC (also: conjugated to KLH) [GNA 33, control peptide, a mimetic of PorA P1.2, conjugated to KLH, reference compound]	–	–	mAb Reactivity P1.2 [3]: + (50% of maximal binding at 1-10 μg/ml); mAb Reactivity JAR 4 [4]: − (no detectable binding at 50 μg/ml)
1 (HDHKLEGTE) [Clone 1]	+++ (O.D. from 1 to 2)	++++ (O.D. from 2 to 3.5)	–
ADALTAPLDHKDK [SEQ ID NO: 32]	–	–	binding to JAR 4 by ELISA [6]: no detectable binding
16 (HDHKHGFQEPAS) [Clone 16]	+ (O.D. from 0.15 to 0.5)	+ (O.D. from 0.15 to 0.5)	–
10 (HVHRGSQGGQRQ) [Clone 10]	+ (O.D. from 0.15 to 0.5)	+ (O.D. from 0.15 to 0.5)	–
8 (HDHRIWPLDVTA) [Clone 8]	+ (O.D. from 0.15 to 0.5)	++ (O.D. from 0.5 to 1)	–
DHKDKGLQSLTLD [SEQ ID NO: 33]	–	–	binding to JAR 4 by ELISA [6]: no detectable binding
TKDDPLKQHLALSAGDPAKC (also: conjugated to KLH) [JAR 4 Scrambled, scrambled native fHbp peptide, negative control, conjugated to KLH, reference compound]	–	–	mAb Reactivity P1.2 [3]: − (no detectable binding at 50 μg/ml); mAb Reactivity JAR 4 [4]: − (no detectable binding at 50 μg/ml); mAb Reactivity JAR 5 [5]: − (no detectable binding at 50 μg/ml)
AEGEFHDHKLEGTEDPAKC (also: conjugated to KLH) [JAR 4 Phage 3, synthetic peptide conjugated to keyhole limpet hemocyanin (KLH)]	–	–	mAb Reactivity JAR 4 [4]: + (50% of maximal binding at 1-10 μg/ml); reactivity with JAR 4 by ELISA [4]: reacted; mAb Reactivity JAR 5 [5]: − (no detectable binding at 50 μg/ml); binding to control mAb anti-fHbp JAR 5 [5]: no detectable binding
HFVQQTPQSQDPAKC (also: conjugated to KLH) [PorA P1.2, control peptide derived from loop 4 of PorA VR2, strain 2996, conjugated to KLH, reference compound]	–	–	mAb Reactivity P1.2 [3]: + (50% of maximal binding at 1-10 μg/ml); mAb Reactivity JAR 4 [4]: − (no detectable binding at 50 μg/ml)
13 (LCQERLSQRCGV) [Clone 13]	+ (O.D. from 0.15 to 0.5)	+ (O.D. from 0.15 to 0.5)	–
4 (WTLAVFDHKAQT) [Clone 4]	+++ (O.D. from 1 to 2)	+++ (O.D. from 1 to 2)	–
AEGEFWTLAVFDHKAQTGDPAKC (also: conjugated to KLH) [JAR 4 Phage 2, synthetic peptide conjugated to keyhole limpet hemocyanin (KLH)]	–	–	mAb Reactivity P1.2 [3]: − (no detectable binding at 50 μg/ml); mAb Reactivity JAR 4 [4]: ++ (50% of maximal binding at < 1 μg/ml); reactivity with JAR 4 by ELISA [4]: reacted
B1	–	–	decrease in JAR 4-reactivity compared with wild-type recombinant fHbp [7]: approximately 1000 fold
B2	–	–	decrease in JAR 4-reactivity compared with wild-type recombinant fHbp [7]: approximately 10 fold
B3	–	–	JAR 4 binding compared with wild-type recombinant fHbp ([7]; v.1 fHbp (gene from MC58) alanine mutant): eliminated detectable JAR 4 binding
